Where a name gives a salt, the structure may show the parent alone.
Assays:
[1] = target: PI3Kδ (p110δ/p85α) Recombinant Human Protein (Homo sapiens (Human), UniProt O00329); experiment: PI3Kδ Scintillation Proximity Assay; assay type: biochemical; conditions: 20 μM PIP2, 2 μM ATP, 3.4 nM PI3Kδ, 120 min
Description: Example C. PI3Kδ Scintillation Proximity Assay
(§1) [γ-^33P]ATP (10 mCi/mL) and Wheat Germ Agglutinin (WGA) YSi SPA Scintillation Beads was purchased from Perkin Elmer (Waltham, Mass.). Lipid kinase substrate, D-myo-Phosphatidylinositol 4,5-bisphosphate (PtdInS(4,5)P2)D (+)-sn-1,2-di-O-octanoylglyceryl, 3-O-phospho linked (PIP2), CAS 204858-53-7, was purchased from Echelon Biosciences (Salt Lake City, Utah). PI3Kδ (p110δ/p85α) Recombinant Human Protein was purchased from Eurofins (St Charles, Mo.). ATP, MgCl2, DTT, EDTA, MOPS and CHAPS were purchased from Sigma Aldrich (St. Louis, Mo.).
(§2) The kinase reaction was conducted in polystyrene 384-well Greiner Bio-one white plate from Thermo Fisher Scientific in a final volume of 25 μL. Inhibitors were first diluted serially in DMSO and added to the plate wells before the addition of other reaction components. The final concentration of DMSO in the assay was 2%. The PI3Kδ assay was carried out at room temperature in 20 mM MOPS, pH 6.7, 10 mM MgCl2, 5 mM DTT and CHAPS 0.03%. Reactions were initiated by the addition of ATP, the final reaction mixture consisted of 20 μM PIP2, 2 μM ATP, 0.5 μCi [γ-^33P]ATP, 3.4 nM PI3Kδ. Reactions were incubated for 120 min and terminated by the addition of 40 μL SPA beads suspended in quench buffer: 163 mM potassium phosphate pH 7.8, 20% glycerol, 25 mM EDTA. The final concentration of SPA beads is 1.0 mg/mL. After the plate sealing, plates were shaken overnight at room temperature and centrifuged at 1500 rpm for 10 min, the radioactivity of the product was determined by scintillation counting on Topcount (PerkinElmer). IC50 determination was performed by fitting the curve of percent of the solvent control activity versus the log of the inhibitor concentration using the GraphPad Prism 6.0 software.

[2] = target: PI3Kγ (p110γ) Recombinant Human Protein (Homo sapiens (Human), UniProt P48736); experiment: PI3K-γ Scintillation Proximity Assay; assay type: biochemical; conditions: 20 μM PIP2, 2 μM ATP, 13 nM PI3Kγ, 120 min
Chain of PI3Kγ (p110γ) Recombinant Human Protein (P48736 whole entry): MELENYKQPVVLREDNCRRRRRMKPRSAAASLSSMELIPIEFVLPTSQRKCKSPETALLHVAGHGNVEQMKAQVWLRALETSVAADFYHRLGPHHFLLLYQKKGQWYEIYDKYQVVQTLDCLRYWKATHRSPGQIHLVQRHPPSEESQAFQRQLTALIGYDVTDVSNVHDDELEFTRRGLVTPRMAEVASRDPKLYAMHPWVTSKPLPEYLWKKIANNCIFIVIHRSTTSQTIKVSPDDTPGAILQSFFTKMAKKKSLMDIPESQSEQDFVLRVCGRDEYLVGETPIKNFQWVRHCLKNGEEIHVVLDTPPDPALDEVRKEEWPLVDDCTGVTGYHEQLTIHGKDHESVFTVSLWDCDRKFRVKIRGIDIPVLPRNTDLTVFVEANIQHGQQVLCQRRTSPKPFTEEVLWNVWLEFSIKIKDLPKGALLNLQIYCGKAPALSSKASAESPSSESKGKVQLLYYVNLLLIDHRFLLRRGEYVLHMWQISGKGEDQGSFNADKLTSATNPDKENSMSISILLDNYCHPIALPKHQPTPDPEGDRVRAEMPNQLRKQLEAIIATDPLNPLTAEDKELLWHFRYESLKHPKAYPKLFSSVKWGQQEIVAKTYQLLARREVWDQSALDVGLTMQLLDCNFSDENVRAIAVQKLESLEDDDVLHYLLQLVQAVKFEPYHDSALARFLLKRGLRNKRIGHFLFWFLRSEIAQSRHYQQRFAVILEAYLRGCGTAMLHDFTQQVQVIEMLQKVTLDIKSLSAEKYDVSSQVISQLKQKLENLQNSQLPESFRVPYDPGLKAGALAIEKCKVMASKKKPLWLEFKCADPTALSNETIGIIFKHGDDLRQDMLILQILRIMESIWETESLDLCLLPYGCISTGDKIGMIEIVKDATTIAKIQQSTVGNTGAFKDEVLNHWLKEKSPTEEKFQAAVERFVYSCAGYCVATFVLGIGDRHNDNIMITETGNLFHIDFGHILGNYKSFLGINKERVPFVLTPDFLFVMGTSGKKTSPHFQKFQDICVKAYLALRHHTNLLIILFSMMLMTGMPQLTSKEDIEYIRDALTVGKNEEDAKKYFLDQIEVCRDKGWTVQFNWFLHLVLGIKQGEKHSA
Description: Example B. PI3K-γ Scintillation Proximity Assay
as §1, with “PI3Kγ (p110γ)” for “PI3Kδ (p110δ/p85α)”, “Life technology (Grand Island, N.Y.).” for “Eurofins (St Charles, Mo.).”
as §2, with “PI3Kγ” for “PI3Kδ”, “[γ-^33p]ATP, 13” for “[γ-^33P]ATP, 3.4”, “PI3Kγ.” for “PI3Kδ.”

[3] = test system: Phosphorylated Ribosomal Protein S6 (RPS6) in THP-1 cells; experiment: THP-1 RPS6 ELISA Assay; assay type: cell-based; conditions: Homo sapiens, 2 hours compound, 10 nM MCP-1 for 15 minutes, Phospho-RPS6 ELISA, read-out: PI3Kγ_THP1_RPS6_ELISA IC50
Experimental: Example A. THP-1 RPS6 ELISA Assay To measure the Phosphorylated Ribosomal Protein S6 (RPS6) in cell lysates, THP-1 cells (Human Acute Monocytic Leukemia) are purchased from ATCC (Manassas, Va.) and maintained in RPMI with 10% FBS (Gibco/Life Technologies, Carlsbad, Calif.). For the assay, THP-1 cells are serum starved overnight in RPMI, then plated in RPMI (2×10^5 cells/well in 90 μL) into 96-well flat-bottom tissue culture treated plates (Corning, Corning, N.Y.), in the presence or absence of a concentration range of test compounds. Covered plates are incubated for 2 hours at 37° C., 5% CO2 then treated with or without 10 nM MCP-1 (MYBioSource, San Diego, Calif.) for 15 minutes at 37° C., 5% CO2. Plates are centrifuged at 1600 RPM and supernatants are removed. Cells are lysed in Lysis Buffer (Cell Signaling, Danvers, Mass.) with Protease Inhibitor (Calbiochem/EMD, Germany), PMSF (Sigma, St Louis Mo.), HALTS (Thermo Fisher, Rockford, Ill.) for 30 min on wet ice. Cell lysates are frozen at −80° C. before testing. The lysates are tested in the Human/Mouse/Rat Phospho-RPS6 ELISA (R&D Systems, Inc. Minn, Minn.). The plate is measured using a microplate reader (SpectraMax M5-Molecular Devices, LLC Sunnyvale, Calif.) set to 450 nm with a wavelength correction of 540. IC50 determination is performed by fitting the curve of inhibitor percent inhibition versus the log of the inhibitor concentration using the GraphPad Prism 5.0 software.

Chain of PI3Kδ (p110δ/p85α) Recombinant Human Protein (O00329 whole entry): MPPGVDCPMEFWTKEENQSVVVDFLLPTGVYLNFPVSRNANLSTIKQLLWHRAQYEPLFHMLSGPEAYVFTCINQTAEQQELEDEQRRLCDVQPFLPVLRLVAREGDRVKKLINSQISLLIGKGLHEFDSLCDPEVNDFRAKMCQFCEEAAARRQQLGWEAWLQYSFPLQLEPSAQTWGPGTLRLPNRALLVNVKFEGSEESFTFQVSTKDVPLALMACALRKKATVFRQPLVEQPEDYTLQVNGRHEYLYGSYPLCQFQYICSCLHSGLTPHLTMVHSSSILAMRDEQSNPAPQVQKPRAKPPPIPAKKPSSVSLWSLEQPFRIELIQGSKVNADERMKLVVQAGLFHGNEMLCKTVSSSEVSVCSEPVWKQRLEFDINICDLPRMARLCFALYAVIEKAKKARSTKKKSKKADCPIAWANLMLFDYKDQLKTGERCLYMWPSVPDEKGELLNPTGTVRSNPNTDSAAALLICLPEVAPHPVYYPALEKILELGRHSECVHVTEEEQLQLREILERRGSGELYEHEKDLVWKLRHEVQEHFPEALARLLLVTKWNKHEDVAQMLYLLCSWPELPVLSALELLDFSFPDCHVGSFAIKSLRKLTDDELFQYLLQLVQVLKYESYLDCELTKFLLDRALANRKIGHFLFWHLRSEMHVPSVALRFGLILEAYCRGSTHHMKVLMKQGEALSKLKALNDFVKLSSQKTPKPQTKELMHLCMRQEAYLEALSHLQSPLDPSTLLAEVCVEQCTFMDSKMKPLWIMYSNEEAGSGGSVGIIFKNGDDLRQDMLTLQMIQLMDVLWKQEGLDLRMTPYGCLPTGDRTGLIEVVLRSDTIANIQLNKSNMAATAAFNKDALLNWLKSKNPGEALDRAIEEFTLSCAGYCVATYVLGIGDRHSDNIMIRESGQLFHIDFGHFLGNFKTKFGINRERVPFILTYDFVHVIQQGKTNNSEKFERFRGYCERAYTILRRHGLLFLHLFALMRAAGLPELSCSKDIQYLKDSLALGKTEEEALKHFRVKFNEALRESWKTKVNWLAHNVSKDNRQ
Chain of PI3Kδ (p110δ/p85α) Recombinant Human Protein (P27986 whole entry partner): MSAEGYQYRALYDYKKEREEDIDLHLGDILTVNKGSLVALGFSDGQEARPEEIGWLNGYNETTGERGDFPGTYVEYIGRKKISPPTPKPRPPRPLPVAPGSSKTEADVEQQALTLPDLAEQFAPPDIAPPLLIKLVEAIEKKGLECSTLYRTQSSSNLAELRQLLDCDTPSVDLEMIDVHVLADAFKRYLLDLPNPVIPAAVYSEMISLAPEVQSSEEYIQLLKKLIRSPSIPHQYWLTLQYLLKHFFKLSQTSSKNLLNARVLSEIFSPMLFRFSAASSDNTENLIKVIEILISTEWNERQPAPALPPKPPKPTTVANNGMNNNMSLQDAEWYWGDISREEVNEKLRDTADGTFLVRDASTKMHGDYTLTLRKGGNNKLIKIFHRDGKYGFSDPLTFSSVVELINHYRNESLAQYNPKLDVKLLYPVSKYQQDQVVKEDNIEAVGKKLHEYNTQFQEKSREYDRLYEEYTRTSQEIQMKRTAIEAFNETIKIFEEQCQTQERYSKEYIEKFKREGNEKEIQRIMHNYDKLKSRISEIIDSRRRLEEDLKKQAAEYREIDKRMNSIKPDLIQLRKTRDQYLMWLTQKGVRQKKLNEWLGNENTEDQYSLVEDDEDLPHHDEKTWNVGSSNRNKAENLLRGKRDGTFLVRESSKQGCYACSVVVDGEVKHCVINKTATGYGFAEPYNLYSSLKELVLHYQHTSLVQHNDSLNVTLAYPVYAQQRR

SMILES | IC50 [1] [nM] | IC50 [2] [nM] | IC50 [3] [nM]
C[C@@H](C1CC1)N1Cc2cc(-c3cnc4c(N)ncnn34)cc(C(O)(CO)C(F)(F)F)c2C1=O (mixture of isomers) [Example 39, 5-(4-Aminoimidazo[2,1-f][1,2,4]triazin-7-yl)-2-((S)-1-cyclopropylethyl)-7-(1,1,1-trifluoro-2,3-dihydroxypropan-2-yl)isoindolin-1-one, trifluoroacetate salt] | < 2000 | ≤ 100 | ≥ 1000
CSc1cc(-c2cnc3c(N)nc(C(F)(F)F)cn23)cc2c1C(=O)N([C@@H](C)C1CC1)C2 [Example 2, (S)-5-(8-Amino-6-(trifluoromethyl)imidazo[1,2-a]pyrazin-3-yl)-2-(1-cyclopropylethyl)-7-(methylthio)isoindolin-1-one] | ≤ 500 | ≤ 100 | ≥ 1000
C[C@@H](C1CC1)N1Cc2cc(-c3cnc4c(N)nc(-c5cn[nH]c5)cn34)cc(S(C)(=O)=O)c2C1=O [Example 38, (S)-5-(8-Amino-6-(1H-pyrazol-4-yl)imidazo[1,2-a]pyrazin-3-yl)-2-(1-cyclopropylethyl)-7-(methylsulfonyl)isoindolin-1-one, trifluoroacetate salt] | ≤ 500 | ≤ 100 | ≥ 1000
C[C@@H](C1CC1)N1Cc2cc(-c3cnc4c(N)nc(C(F)(F)F)cn34)cc(C(O)(CO)C(F)(F)F)c2C1=O (mixture of isomers) [Example 40, 5-(8-Amino-6-(trifluoromethyl)imidazo[1,2-a]pyrazin-3-yl)-2-((S)-1-cyclopropylethyl)-7-(1,1,1-trifluoro-2,3-dihydroxypropan-2-yl)isoindolin-1-one, trifluoroacetate salt] | < 2000 | ≤ 100 | ≥ 1000
CC(C1CC1)n1cc2cc(-c3cnc4c(N)ncnn34)cnc2n1 (stereo not drawn) [Example 25, 7-(2-(1-Cyclopropylethyl)-2H-pyrazolo[3,4-b]pyridin-5-yl)imidazo[2,1-f][1,2,4]triazin-4-amine trifluoroacetate salt] | ≥ 2000 | ≤ 100 | ≥ 1000
C[C@@H](C1CC1)N1Cc2cc(-c3cnc4c(N)nc(C(=O)NC5CC(O)C5)cn34)ccc2C1=O (stereo partly drawn) [Example 31, (S)-8-Amino-3-(2-(1-cyclopropylethyl)-1-oxoisoindolin-5-yl)-N-(3-hydroxycyclobutyl)imidazo[1,2-a]pyrazine-6-carboxamide, trifluoroacetate salt] | ≥ 2000 | ≤ 100 | ≥ 1000
C[C@@H](C1CC1)N1Cc2cc(-c3cnc4c(N)ncnn34)cc(Cl)c2C1=O [Example 7, (S)-5-(4-Aminoimidazo[2,1-f][1,2,4]triazin-7-yl)-7-chloro-2-(1-cyclopropylethyl)isoindolin-1-one] | ≤ 500 | ≤ 100 | ≥ 1000
Cc1ncc(-c2cn3c(-c4cc5c(c(S(C)(=O)=O)c4)C(=O)N([C@@H](C)C4CC4)C5)cnc3c(N)n2)s1 [Example 34, (S)-5-(8-Amino-6-(2-methylthiazol-5-yl)imidazo[1,2-a]pyrazin-3-yl)-2-(1-cyclopropylethyl)-7-(methylsulfonyl)isoindolin-1-one, trifluoroacetate salt] | ≤ 100 | ≤ 100 | ≤ 100
C[C@@H](C1CC1)N1Cc2cc(-c3cnc4c(N)nc(-c5ccnn5C)cn34)cc(S(C)(=O)=O)c2C1=O [Example 36, (S)-5-(8-Amino-6-(1-methyl-1H-pyrazol-5-yl)imidazo[1,2-a]pyrazin-3-yl)-2-(1-cyclopropylethyl)-7-(methylsulfonyl)isoindolin-1-one, trifluoroacetate salt] | ≤ 500 | ≤ 100 | ≤ 500
CC(C)NC(=O)c1cn2c(-c3cc4c(c(S(C)(=O)=O)c3)C(=O)N([C@@H](C)C3CC3)C4)cnc2c(N)n1 (single isomer, unassigned) [Example 28, trifluoroacetate salt] | ≤ 500 | ≤ 100 | ≤ 500
Cc1ncc(-c2cn3c(-c4cc5c(c(S(C)(=O)=O)c4)C(=O)N([C@@H](C)C4CC4)C5)cnc3c(N)n2)o1 (single isomer, unassigned) [Example 33, trifluoroacetate salt] | ≤ 100 | ≤ 100 | ≤ 500
CC(=O)c1cc(-c2cnc3c(N)ncnn23)cc2c1C(=O)N([C@@H](C)C1CC1)C2 [Example 15, (S)-7-Acetyl-5-(4-aminoimidazo[2,1-f][1,2,4]triazin-7-yl)-2-(1-cyclopropylethyl)isoindolin-1-one trifluoroacetate salt] | ≤ 500 | ≤ 100 | ≥ 1000
CC(C)N1Cc2cc(-c3cnc4c(N)nc(C(F)(F)F)cn34)ccc2C1=O [Example 13, 5-(8-Amino-6-(trifluoromethyl)imidazo[l,2-a]pyrazin-3-yl)-2-isopropylisoindolin-1-one trifluoroacetate salt] | ≥ 2000 | ≤ 100 | ≥ 1000
C[C@@H](C1CC1)N1Cc2cc(-c3cnc4c(N)nc(C(F)(F)F)cn34)cc(S(C)(=O)=O)c2C1=O [Example 3, (S)-5-(8-Amino-6-(trifluoromethyl)imidazo[1,2-a]pyrazin-3-yl)-2-(1-cyclopropylethyl)-7-(methylsulfonyl)isoindolin-1-one] | < 2000 | ≤ 100 | ≥ 1000
Cc1[nH]ncc1-c1cn2c(-c3cc4c(c(S(C)(=O)=O)c3)C(=O)N([C@@H](C)C3CC3)C4)cnc2c(N)n1 [Example 37, (S)-5-(8-Amino-6-(5-methyl-1H-pyrazol-4-yl)imidazo[1,2-a]pyrazin-3-yl)-2-(1-cyclopropylethyl)-7-(methylsulfonyl)isoindolin-1-one, trifluoroacetate salt] | ≤ 500 | ≤ 100 | < 1000
